{"source": "patent US20240252500A1", "about": "“Treatment of chronic pruritic dermatoses” (CymaBay Therapeutics, Inc., priority 2023, published 2024)", "key": {"IL-31 [1]": {"tested_on": "IL-31", "details": "NASH patients; cited from earlier work"}, "CD4 T cells": {"tested_on": "CD4 T cells", "assay": "IL-31 production by CD4 T cells under Th2-promoting conditions", "assay_type": "cell-based, human", "details": "both donors, both promoters; p<0.0001, Mann-Whitney test", "procedure": "CD4 T cells were enriched from peripheral blood mononuclear cells collected from two normal healthy donors, using the EasySep™ Human CD4+ T Cell Isolation Kit ([…] Technologies). 100,000 CD4 T cells were seeded in a U-bottom 96-well-plate well, and cultured in Th2-promoting conditions promoted by IL-4 or IL-33. […] On day 5 of culture, the anti-CD3/CD28 beads were diluted by adding 150 μL TCM. From days 5 to 13, the cells were cultured in the presence of the same reagents as for days 1 to 4 plus 50 ng/mL IL-2; and the cell culture medium was renewed every 2-3 days by a change of 50% volume of the medium. On day 13 or day 14, the expanded T cells in an individual well were split to four to six wells of 96-well-plate wells; and 5 ng/mL phorbol myristate acetate and 500 ng/mL ionomycin were added for 3 days to re-activate the T cells. The IL-31 concentration in the culture medium of each well was determined using the V-PLEX Human IL-31 Kit (Meso Scale Diagnostics, LLC; Rockville, MD, USA)."}, "[2]": {"target": "T1, peroxisome proliferator-activated receptor-α (Homo sapiens, UniProt Q07869)", "T1 sequence (Q07869 1-468)": "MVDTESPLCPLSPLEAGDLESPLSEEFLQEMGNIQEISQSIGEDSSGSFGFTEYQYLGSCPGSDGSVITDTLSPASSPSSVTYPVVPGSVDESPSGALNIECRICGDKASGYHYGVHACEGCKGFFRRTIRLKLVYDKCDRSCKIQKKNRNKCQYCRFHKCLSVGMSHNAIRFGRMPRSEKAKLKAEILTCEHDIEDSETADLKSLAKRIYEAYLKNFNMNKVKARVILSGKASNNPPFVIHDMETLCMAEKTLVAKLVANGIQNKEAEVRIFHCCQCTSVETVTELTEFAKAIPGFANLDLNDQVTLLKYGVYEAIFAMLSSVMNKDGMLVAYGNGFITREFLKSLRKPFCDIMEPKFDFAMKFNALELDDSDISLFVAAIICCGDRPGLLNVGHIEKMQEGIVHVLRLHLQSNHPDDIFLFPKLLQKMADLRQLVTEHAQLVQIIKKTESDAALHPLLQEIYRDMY", "assay": "PPARα agonism / selectivity", "assay_type": "biochemical"}, "[3]": {"assay": "Oral bioavailability of seladelpar", "details": "in vivo"}, "IL-31 [4]": {"tested_on": "IL-31", "assay": "Serum IL-31 in PBC subjects, phase 3 study (ENHANCE, NCT03602560)", "assay_type": "in vivo, human", "details": "before treatment", "text": "The trial subjects in this phase 3 study were adult, male or female, with a diagnosis of PBC. Exclusion criteria included AST or ALT≥3×ULN, total bilirubin (TBIL)≥2×ULN, autoimmune hepatitis or a history of chronic viral hepatitis, PSC, the current use of fibrates or simvastatin, the use of colchicine, methotrexate, azathioprine, or systemic steroids in the previous two months, the use of an experimental treatment for PBC, and the use of an experimental or unapproved immunosuppressant. […] Serum IL-31 and its correlation with patient-reported pruritus numerical rating scale (NRS, 0-10) were assessed."}, "[5]": {"tested_on": "atopic dermatitis-associated pruritus", "assay": "Topical ointment treatment of pruritic atopic dermatitis", "assay_type": "in vivo, human", "procedure": "(§1) Subjects are permitted their usual other medications. […] At each visit, the subjects are assessed for their disease symptoms and biomarkers, and assessed for pruritus. The subjects also maintain health diaries, which are reviewed at each visit.\nAdult subjects with pruritic atopic dermatitis are treated topically with an ointment containing 1, 2, 5, or 10% of mavodelpar. Subjects are permitted their usual other medications. The subjects are assessed before the study, and at intervals during the study, such as every 4 weeks during the study and 4 weeks after the last dose of the mavodelpar therapy, for safety and pharmacodynamic evaluations. At each visit, the subjects are assessed for their disease symptoms and biomarkers, and assessed for pruritus. The subjects also maintain health diaries, which are reviewed at each visit."}, "human IL-31 [6]": {"tested_on": "human IL-31", "assay": "Serum human IL-31 in PXB mice (humanized liver)", "assay_type": "in vivo, PXB mouse", "details": "2 h after last dose, day 0 0.13 pg/mL", "text": "The PXB mouse (PhoenixBio Co., Ltd., Higashi-Hiroshima, Japan) is a chimeric mouse with a humanized liver, produced by transplanting human hepatocytes into the albumin enhancer/promoter-urokinase-type plasminogen activator complementary DNA transgenic/SCID mouse. The mouse has its liver repopulated by human hepatocytes at a ratio of more than 70%, typically 85-90%, as assessed by measuring the ratio of human albumin to mouse albumin in the blood. The transplanted human hepatocytes express a variety of human messenger RNA (mRNA) and proteins, in a similar manner to those of the normal human liver. […] The study was conducted at PhoenixBio. Male PXB mice aged about 25 weeks, kept in single animal cages and fed CRF1 mouse chow supplemented with AS primate chow for vitamin C supplementation (both from Oriental Yeast Co., Ltd., Tokyo, Japan), were randomized into groups (10/group) based on mean values for body weight and blood human albumin concentration. […] Two hours after the last dose, each mouse was anesthetized with isoflurane, at least 400 μL blood was collected by cardiac puncture, and the mouse sacrificed by exsanguination. The blood samples were left to coagulate at room temperature for at least 5 minutes, then centrifuged at 13200×g for 3 minutes at 4° C. to obtain serum, which was analyzed for human IL-31."}, "[7]": {"assay": "Seladelpar oral studies in primary biliary cholangitis", "assay_type": "in vivo, human"}, "[8]": {"tested_on": "atopic dermatitis-associated pruritus", "assay": "Oral treatment of pruritic atopic dermatitis", "assay_type": "in vivo, human", "procedure": "as §1\nAdult subjects with pruritic atopic dermatitis are treated orally with doses of 5, 10, 25, 50, and 100 mg/day of mavodelpar. Subjects are permitted their usual other medications. The subjects are assessed before the study, and at intervals during the study, such as every 4 weeks during the study and 4 weeks after the last dose of the mavodelpar therapy, for safety and pharmacodynamic evaluations. At each visit, the subjects are assessed for their disease symptoms and biomarkers, and assessed for atopic dermatitis-associated pruritus. The subjects also maintain health diaries, which are reviewed at each visit."}, "[9]": {"target": "T1, peroxisome proliferator-activated receptor-α", "details": "Alzheimer's Drug Discovery Foundation Cognitive Vitality Report, November 2021; read-out: EC50 for PPARα; cited from earlier work"}, "[10]": {"details": "early clinical studies; cited from earlier work"}, "[11]": {"target": "T2, peroxisome proliferator-activated receptor-γ (Homo sapiens, UniProt P37231)", "T2 sequence (P37231 1-505)": "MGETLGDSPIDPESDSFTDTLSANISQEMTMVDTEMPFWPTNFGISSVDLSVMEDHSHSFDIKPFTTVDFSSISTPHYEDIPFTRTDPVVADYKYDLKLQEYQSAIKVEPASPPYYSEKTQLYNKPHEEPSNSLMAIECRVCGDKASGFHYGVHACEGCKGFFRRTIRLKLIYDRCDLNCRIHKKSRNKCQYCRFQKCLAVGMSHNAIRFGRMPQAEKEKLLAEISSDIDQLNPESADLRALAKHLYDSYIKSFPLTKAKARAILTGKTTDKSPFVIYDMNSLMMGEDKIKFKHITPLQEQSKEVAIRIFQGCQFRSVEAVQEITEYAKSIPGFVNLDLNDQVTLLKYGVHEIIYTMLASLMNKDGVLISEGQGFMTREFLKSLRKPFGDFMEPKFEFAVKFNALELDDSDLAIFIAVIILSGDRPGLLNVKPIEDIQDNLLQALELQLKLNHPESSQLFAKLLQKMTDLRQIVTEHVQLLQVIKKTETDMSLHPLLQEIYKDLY", "details": "Alzheimer's Drug Discovery Foundation Cognitive Vitality Report, November 2021; read-out: EC50 for PPARγ; cited from earlier work"}, "[12]": {"details": "animal models and humans; cited from earlier work"}, "[13]": {"details": "several animal models of type 2 diabetes; cited from earlier work"}, "human IL-31 [14]": {"tested_on": "human IL-31", "details": "humanized liver murine model; cited from earlier work"}, "[15]": {"details": "PBC patients, 12 months, cited from earlier work"}}, "note": "pEC50: −log10 of the molar value. Where two headings read alike, the source gives them in different places."}
{"smiles": "O=C(O)c1ccnc(N2CC(O)(c3ccc(OCc4c(-c5c(Cl)cccc5Cl)noc4C4CC4)cc3Cl)C2)c1", "note": "[cilofexor]", "values": [{"measurement": "effect on IL-31", "setting": "IL-31 [1]", "result": "increased IL-31"}]}
{"smiles": "CCO[C@H](COc1ccc(C(F)(F)F)cc1)CSc1ccc(OCC(=O)O)c(C)c1", "note": "[seladelpar, [4-({(2R)-2-ethoxy-3-[4-(trifluoromethyl)phenoxy]propyl}sulfanyl)-2-methylphenoxy]acetic acid]", "values": [{"measurement": "IL-31 production vs DMSO control", "setting": "CD4 T cells", "result": "reduced IL-31 production"}, {"measurement": "specificity for PPARδ compared with PPARα", "setting": "[2]", "result": "> 600", "unit": "fold"}, {"measurement": "oral bioavailability", "setting": "[3]", "result": "high"}, {"measurement": "mean serum IL-31, baseline", "setting": "IL-31 [4]; 5 mg/day oral as L-lysine dihydrate salt", "result": 3.8, "unit": "pg/mL"}, {"measurement": "mean serum IL-31, baseline", "setting": "IL-31 [4]; 10 mg/day oral as L-lysine dihydrate salt", "result": 4.2, "unit": "pg/mL"}, {"measurement": "atopic dermatitis-associated pruritus", "setting": "[5]; ointment containing 1, 2, 5 or 10% seladelpar", "result": "improvement in their atopic dermatitis-associated pruritus"}, {"measurement": "serum human IL-31 concentration", "setting": "human IL-31 [6]; gavage 10 mL/kg of 10 mg/mL once/day for 19 days", "result": 0.19, "unit": "pg/mL"}, {"measurement": "efficacy in PBC", "setting": "[7]; oral 5, 10, 50 and 200 mg/day", "result": "effective in the treatment of PBC"}, {"measurement": "effect on cholestatic pruritus (exacerbation)", "setting": "[7]; oral 5, 10, 50 and 200 mg/day in PBC", "result": "not to exacerbate cholestatic pruritus"}, {"measurement": "efficacy in cholestatic pruritus associated with PBC", "setting": "[7]; oral 5 and 10 mg/day", "result": "effective in the treatment of cholestatic pruritus"}, {"measurement": "atopic dermatitis-associated pruritus", "setting": "[8]; oral 5, 10, 25 and 50 mg/day seladelpar", "result": "improvement in their atopic dermatitis-associated pruritus"}]}
{"smiles": "Cc1cc(OC/C=C(/c2ccc(F)cc2)c2ccc(C#CCN3CCOCC3)cc2)ccc1OCC(=O)O", "note": "[mavodelpar, (4-{[(2E)-3-(4-fluorophenyl)-3-{4-[3-(morpholin-4-yl)prop-1-yn-1-yl]phenyl}prop-2-en-1-yl]oxy}-2-methylphenoxy)acetic acid]", "values": [{"measurement": "pEC50", "setting": "[9]", "result": "< 5.00"}, {"measurement": "tolerability", "setting": "[10]", "result": "well tolerated"}, {"measurement": "pEC50", "setting": "[11]", "result": "< 5.00"}, {"measurement": "high-density lipoprotein cholesterol", "setting": "[12]", "result": "significant increase in high-density lipoprotein cholesterol"}, {"measurement": "low-density lipoprotein cholesterol and triglycerides", "setting": "[12]", "result": "lowering of low-density lipoprotein cholesterol and triglycerides"}, {"measurement": "atopic dermatitis-associated pruritus", "setting": "[5]; ointment containing 1, 2, 5 or 10% mavodelpar", "result": "improvement in their atopic dermatitis-associated pruritus"}, {"measurement": "anti-diabetic effect", "setting": "[13]", "result": "anti-diabetic effect"}, {"measurement": "atopic dermatitis-associated pruritus", "setting": "[8]; oral 5, 10, 25, 50 and 100 mg/day mavodelpar", "result": "improvement in their atopic dermatitis-associated pruritus"}]}
{"smiles": "CC[C@H]1[C@@H](O)[C@@H]2[C@H](CC[C@]3(C)[C@@H]([C@H](C)CCC(=O)O)CC[C@@H]23)[C@@]2(C)CC[C@@H](O)C[C@@H]12", "note": "[obeticholic acid]", "values": [{"measurement": "serum human IL-31 concentration", "setting": "human IL-31 [6]; gavage 10 mL/kg of 1 mg/mL once/day for 19 days", "result": 3.7, "unit": "pg/mL"}, {"measurement": "IL-31 mRNA expression in human hepatocytes", "setting": "human IL-31 [14]", "result": "increased"}, {"measurement": "patients reporting severe pruritus", "setting": "[15]; OCALIVA 10 mg arm", "result": 23, "unit": "%"}, {"measurement": "patients reporting severe pruritus", "setting": "[15]; OCALIVA titration arm", "result": 19, "unit": "%"}]}
